{"source": "patent US20220064291A1", "about": "“METHODS OF USING BUTYROPHILIN ANTIBODIES FOR TREATING HIV INFECTION” (Merck Sharp & Dohme Corp., priority 2018, published 2022)", "key": {"human CD4+ T cells": {"test_system": "human CD4+ T cells", "assay": "Inhibition of anti-CD3 (TCR)-mediated T cell activation by recombinant butyrophilin-Fc proteins, bead- and plate-based assays", "conditions": "anti-CD3 stimulation, FIG. 3", "description": "To characterize the role of butyrophilins in regulating T cell responses, T cell assays were performed using recombinant human butyrophilin-Fc proteins. Specifically, we assessed the role of butyrophilins in inhibiting T cell receptor (TCR)-mediated T cell activation by anti-CD3 antibody (clone OKT3). Experiments were performed in bead- and plate-based formats.\nBriefly, PBMCs were isolated from healthy human donors (Biological Specialty Corporation, Colmar, Pa.). To generate T cell blasts, PBMCs were treated with IL-2 (4u/ml) and PHA (1 μg/ml) in RPMI media containing 10% Fetal bovine serum (Gibco, Gaithersburg, Md.), penicillin (100U/ml)/streptomycin (0.1 mg/ml) (Gibco, Gaithersburg, Md.), and L-Glutamine (2 mM) (Gibco, Gaithersburg, Md.) at 37° C. in a CO2 incubator for 7 days. Fresh media was added once every 3 days. […]\n4. […] T cell activation was measured based on IFNγ expression using a V-PLEX proinflammatory panel 1 human assay (Meso Scale Discovery, Rockville, Md.) (FIG. 3A-C).\nSterile 96-well flat bottom tissue culture plates (Corning) were coated with 1 μg/ml of anti-CD3 antibody (Clone OKT3, BD Pharmingen) in PBS+/− the following Fc-fusion proteins: BTN2A2-Fc, BTN3A1-Fc, or human IgG Fc. […] T cell activation was measured based on IFNγ expression using a V-PLEX proinflammatory panel 1 human assay (Meso Scale Discovery, Rockville, Md.) (FIG. 3D)."}, "[1]": {"test_system": "HIV latent primary CD4+ T cells", "assay": "Competition with recombinant BTN-Fc proteins against anti-BTN3A 20.1-mediated virus reactivation", "assay_type": "cell-based, human", "conditions": "recombinant Fc proteins 0.03-10 μg/ml; 24 h; FIG. 6", "description": "To confirm the specificity of anti-BTN3A antibody-mediated activity on latent virus activity and T cell activation, we performed competition experiments using recombinant BTN proteins. Briefly, 96-well flat bottom tissue culture plates (Corning) were coated with anti-CD3 (1 μg/ml) and anti-BTN3A 20.1 antibody (5 μg/ml) in PBS for 16 h in a 4° C. refrigerator. The next day, antibodies were aspirated using a multichannel pipette and various concentrations of recombinant BTN-Fc proteins BTN3A1-Fc and BTN3A2-Fc (10 μg/ml, 3 μg/ml, 1 μg/ml, 0.3 μg/ml, 0.1 μg/ml, and 0.03 μg/ml) were added to antibody coated plates in 2% FBS (in PBS). BTN2A2-Fc and human IgG Fc were used as controls. After 30 min incubation at RT recombinant Fc proteins were aspirated using a multichannel pipette. Next, HIV latent primary CD4+ T cells from two donors were added to the antibody coated plates in duplicates at 125,000 cells/well in 200 ul of primary cell media (RPMI with 10% FBS, 50 μg/ml Primocin™). At 24h post treatment virus reactivation was measured using a Nano-Glo® Luciferase Assay (Promega) (FIG. 6)."}}}
{"substance": "BTN3A1-Fc: recombinant human butyrophilin-Fc fusion protein, R&D systems", "values": [{"measurement": "activation of human CD4+ T cells (IFNγ production, T cell proliferation, IL-2 production)", "setting": "human CD4+ T cells", "value": "block activation"}, {"measurement": "inhibition of anti-BTN3 20.1 Ab-mediated latent HIV activation and T cell activation", "setting": "[1]", "value": "dose-dependent inhibition"}]}
